Measured values from US7871999B2, “Substituted thiazoles and their use for producing drugs” (Gruenenthal GmbH, priority 2005, dated 2011).
Structures can show the parent of a compound that is named as a salt.

target: T1, mGluR5 receptor (Sus scrofa, UniProt I3LUI7); assay: Inhibition of [^3H]-MPEP binding in the mGluR5 receptor binding assay (pig brain homogenate); conditions: 5 nM [^3H]-MPEP
T1 construct: pig brain hemispheres without medulla, cerebellum and pons ... differential centrifugation at 900×g and 40,000×g
T1 sequence (I3LUI7 1-1212): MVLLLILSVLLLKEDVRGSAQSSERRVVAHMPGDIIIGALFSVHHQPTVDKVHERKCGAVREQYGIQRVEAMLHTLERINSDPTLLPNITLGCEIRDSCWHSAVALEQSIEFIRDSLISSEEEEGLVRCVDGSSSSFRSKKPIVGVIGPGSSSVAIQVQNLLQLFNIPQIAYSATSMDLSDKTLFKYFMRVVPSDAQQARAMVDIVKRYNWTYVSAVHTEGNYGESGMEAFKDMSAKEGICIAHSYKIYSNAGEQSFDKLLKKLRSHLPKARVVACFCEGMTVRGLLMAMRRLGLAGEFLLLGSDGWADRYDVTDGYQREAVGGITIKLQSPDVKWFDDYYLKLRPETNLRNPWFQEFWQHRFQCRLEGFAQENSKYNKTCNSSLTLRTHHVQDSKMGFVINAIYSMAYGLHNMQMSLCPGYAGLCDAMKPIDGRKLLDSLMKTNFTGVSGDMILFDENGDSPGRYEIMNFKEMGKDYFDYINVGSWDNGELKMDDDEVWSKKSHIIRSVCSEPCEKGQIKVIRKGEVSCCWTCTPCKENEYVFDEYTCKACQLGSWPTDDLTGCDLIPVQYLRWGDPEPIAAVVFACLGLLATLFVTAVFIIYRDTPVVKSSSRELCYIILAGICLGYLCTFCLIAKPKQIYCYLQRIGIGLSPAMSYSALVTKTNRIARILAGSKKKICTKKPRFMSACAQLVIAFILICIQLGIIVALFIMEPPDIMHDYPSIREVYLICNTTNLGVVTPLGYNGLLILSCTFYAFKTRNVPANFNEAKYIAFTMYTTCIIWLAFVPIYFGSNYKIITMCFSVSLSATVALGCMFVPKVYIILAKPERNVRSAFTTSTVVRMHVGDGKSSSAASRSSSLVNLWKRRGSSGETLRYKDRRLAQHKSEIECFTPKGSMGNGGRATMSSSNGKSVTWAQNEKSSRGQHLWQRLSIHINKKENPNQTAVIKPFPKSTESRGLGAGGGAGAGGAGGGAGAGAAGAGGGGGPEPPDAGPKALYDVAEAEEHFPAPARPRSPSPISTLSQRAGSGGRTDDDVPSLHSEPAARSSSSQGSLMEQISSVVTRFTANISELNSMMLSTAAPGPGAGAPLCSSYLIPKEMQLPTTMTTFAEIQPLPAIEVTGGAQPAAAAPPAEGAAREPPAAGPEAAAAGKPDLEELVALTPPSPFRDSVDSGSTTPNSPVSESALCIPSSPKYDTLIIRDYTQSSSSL
Experimental: I. Method for Determining the Inhibition of [^3H]-MPEP Binding in the mGluR5 Receptor Binding Assay […]
The batches are then filtered with the assistance of a Brandel Cell Harvester (Brandel, Robotic 9600 model) on Unifilter plates with glass filter mats (Perkin Elmer, order number 6005177) and then washed 3 times with buffer (as above) using 250 μl per sample. The filter plates are then dried for 60 min at 55° C. Then 30 μl of Ultima Gold™ scintillating material (Packard BioScience, order number 6013159) is added per well and after 3 hours the samples are measured using the β counter (Microbeta, Perkin Elmer). Nonspecific binding is determined by the addition of 10 μM MPEP (Tocris, order number 1212).

IC50 [nM] | Structure (SMILES)
1320 | CN(C(=O)C#Cc1ccccc1)C1CCN(c2nccs2)C1 (stereo not drawn) [Example 2, N-methyl-3-phenyl-N-(1-(thiazol-2-yl)pyrrolidin-3-yl)propiolamide hydrochloride]
590 | O=C(C#Cc1ccccc1)N1CCCN(c2nccs2)CC1 [Example 3, 1-Thiazol-2-yl-4-(3-phenylpropioloyl)-1,4-diazepane]
1580 | O=C(C#Cc1ccccc1)NCCNc1nccs1 [Example 5, N-(2-((thiazol-2-yl)amino)ethyl)-3-phenylpropiolamide]
10200 | O=C(C#Cc1ccccc1)NC1CN(c2nccs2)C1 [Example 8, 3-Phenyl-N-(1-(thiazol-2-yl)azetidin-3-yl)propiolamide]
1860 | CN(CCNc1nccs1)C(=O)C#Cc1ccccc1 [Example 10, N-methyl-N-(2-(thiazol-2-yl)amino)ethyl-3-phenylpropiolamide]
2180 | O=C(C#Cc1ccccc1)N1CCC(Nc2nccs2)C1 (stereo not drawn) [Example 11, 3-(Thiazol-2-yl-amino)-1-(3-phenylpropioloyl)pyrrolidine]
4970 | CN(CC(=O)N(C)c1nccs1)C(=O)C#Cc1ccccc1 [Example 14, N-Methyl-N-(2-(methyl(thiazol-2-yl)amino)-2-oxoethyl)-3-phenylpropiolamide]
140 | CN(C(=O)C#Cc1ccccc1)C1CCCN(c2nccs2)C1 (stereo not drawn) [Example 16, N-methyl-N-(1-(thiazol-2-yl)piperidin-3-yl)-3-phenylpropiolamide]
1250 | CN(CCN(C)c1nccs1)C(=O)C#Cc1ccccn1 [Example 17, N-Methyl-N-(2-(methyl(thiazol-2-yl)amino)ethyl)-3-(pyrid-2-yl)-propiolamide]
280 | CN(C(=O)C#Cc1ccccc1)C1CN(c2nccs2)C1 [Example 20, N-methyl-N-(1-(thiazol-2-yl)azetidin-3-yl)-3-phenylpropiolamide]
8.3 | Cc1cccc(C#CC(=O)NCCN(C)c2nccs2)c1 [Example 21, N-(2-(methyl(thiazol-2-yl)amino)ethyl)-3-(tol-3-yl)-propiolamide]
350 | CN(c1nccs1)C1CCN(C(=O)C#Cc2ccccc2)C1 (stereo not drawn) [Example 22, 3-(Methyl(thiazol-2-yl)amino)-1-(3-phenylpropioloyl)pyrrolidine]
2780 | CN(CCNC(=O)C#Cc1cccc(Cl)c1)c1nc2ccccc2s1 [Example 24, N-(2-(benzo[d]thiazol-2-yl(methyl)amino)ethyl)-3-(3-chlorophenyl)-propiolamide]
150 | CCOC(=O)c1cnc(N(C)CCNC(=O)C#Cc2cccc(Cl)c2)s1 [Example 25, N-(2-(methyl-(5-ethoxycarbonylthiazol-2-yl)amino)ethyl)-3-(3-chlorophenyl)-propiolamide]
1150 | CN(c1nccs1)C1CCCN(C(=O)C#Cc2ccccc2)C1 (stereo not drawn) [Example 28, 3-(methyl-(thiazol-2-yl)-amino)-1-(3-phenylpropioloyl)piperidine]
27 | Cc1csc(N(C)CCNC(=O)C#Cc2cccc(Cl)c2)n1 [Example 29, N-(2-(methyl-(4-methylthiazol-2-yl)amino)ethyl)-3-(3-chlorophenyl)-propiolamide]
77 | Cc1cnc(N(C)CCNC(=O)C#Cc2cccc(Cl)c2)s1 [Example 30, 3-(3-Chlorophenyl)-N-(2-(methyl(5-methylthiazol-2-yl)amino)ethyl)propiolamide]
13 | CN(CCNC(=O)C#Cc1cccc(Cl)c1)c1ncc(Br)s1 [Example 31, N-(2-((5-Bromothiazol-2-yl)(methyl)amino)ethyl)-3-(3-chlorophenyl)propiolamide]
20 | COC(=O)c1cnc(N(C)CCNC(=O)C#Cc2cccc(Cl)c2)s1 [Example 34, methyl 2-((2-(3-(3-chlorophenyl)-propiolamido)ethyl)(methyl)amino)thiazole-5-carboxylate]
22 | CN(C(=O)C#Cc1cccc(Cl)c1)C1CCCN(c2nccs2)C1 (stereo not drawn) [Example 36, 3-(3-Chlorophenyl)-N-methyl-N-(1-(thiazol-2-yl)piperidin-3-yl)propiolamide]
9.5 | CN(CCNC(=O)C#Cc1cccc(Cl)c1)c1nc(Cl)cs1 [Example 37, 3-(3-chlorophenyl)-N-(2-((4-chlorothiazol-2-yl)(methyl)amino)ethyl)propiolamide]
160 | CN(CCNC(=O)C#Cc1cccc(Cl)c1)c1ncc(Cl)s1 [Example 38, 3-(3-chlorophenyl)-N-(2-((5-chlorothiazol-2-yl)(methyl)amino)ethyl)-propiolamide]
390 | O=C(C#Cc1cccc(Cl)c1)NC1CN(c2nccs2)C1 [Example 39, 3-(3-chlorophenyl)-N-(1-(thiazol-2-yl)azetidin-3-yl)-propiolamide]
17 | CN(C(=O)C#Cc1cccc(Cl)c1)C1CN(c2nccs2)C1 [Example 40, 3-(3-chlorophenyl)-N-methyl-N-(1-(thiazol-2-yl)azetidin-3-yl)-propiolamide]
4.1 | CCN(CCNC(=O)C#Cc1cccc(Cl)c1)c1nccs1 [Example 41, 3-(3-Chlorophenyl)-N-(2-(ethyl(thiazol-2-yl)amino)ethyl)propiolamide]
220 | CN(CCNC(=O)C#Cc1cccc(Cl)c1)c1ncc(C#N)s1 [Example 42, 3-(3-chlorophenyl)-N-(2-((5-cyanothiazol-2-yl)(methyl)amino)ethyl)propiolamide]
74 | CN(c1ncc(F)s1)C1CN(C(=O)C#Cc2cccc(Cl)c2)C1 [Example 43, 1-(3-(3-Chlorophenyl)propioloyl)-3-(methyl(5-fluorothiazol-2-yl)amino)azetidine]
71 | CN(c1ncc(F)s1)C1CCN(C(=O)C#Cc2cccc(Cl)c2)C1 (stereo not drawn) [Example 44, 1-(3-(3-Chlorophenyl)propioloyl)-3-(methyl(5-fluorothiazol-2-yl)amino)pyrrolidine]

same assay, conditions: 1 μM test compound, 5 nM [^3H]-MPEP

inhibition at 1 µM [%] | Structure (SMILES)
59 | Cc1csc(N2CCC(NC(=O)C#Cc3ccccc3)C2)n1 (stereo not drawn) [Example 45, N-(1-(4-methylthiazol-2-yl)pyrrolidin-3-yl)-3-phenylpropiolamide]
48 | COc1cccc(C#CC(=O)NC2CCN(c3nc(C)cs3)C2)c1 (stereo not drawn) [Example 46, 3-(3-methoxyphenyl)-N-(1-(4-methylthiazol-2-yl)pyrrolidin-3-yl)propiolamide]
48 | Cc1nc(N2CCC(NC(=O)C#Cc3ccccc3)C2)sc1C (stereo not drawn) [Example 51, N-(1-(4,5-dimethylthiazol-2-yl)pyrrolidin-3-yl)-3-phenylpropiolamide]
26 | COc1ccc(C#CC(=O)NC2CCN(c3nc(C(C)(C)C)cs3)C2)cc1 (stereo not drawn) [Example 55, N-(1-(4-tert.-butylthiazol-2-yl)pyrrolidin-3-yl)-3-(4-methoxyphenyl)propiolamide]
37 | Cc1ccc(C#CC(=O)NC2CCN(c3nc(C(C)(C)C)cs3)C2)cc1 (stereo not drawn) [Example 56, N-(1-(4-tert.-butylthiazol-2-yl)pyrrolidin-3-yl)-3-p-tolylpropiolamide]
26 | CC(C)(C)c1csc(N2CCC(NC(=O)C#Cc3ccc(F)cc3)C2)n1 (stereo not drawn) [Example 57, N-(1-(4-tert.-butylthiazol-2-yl)pyrrolidin-3-yl)-3-(4-fluorophenyl)propiolamide]
34 | CC(C)(C)c1csc(N2CCC(NC(=O)C#Cc3cccc(F)c3)C2)n1 (stereo not drawn) [Example 59, N-(1-(4-tert.-butylthiazol-2-yl)pyrrolidin-3-yl)-3-(3-fluorophenyl)propiolamide]
30 | CC(C)(C)c1csc(N2CCC(NC(=O)C#Cc3ccccc3)C2)n1 (stereo not drawn) [Example 60, N-(1-(4-tert.-butylthiazol-2-yl)pyrrolidin-3-yl)-3-phenylpropiolamide]
28 | CC(C)(C)c1csc(N2CCC(NC(=O)C#Cc3ccccc3F)C2)n1 (stereo not drawn) [Example 61, N-(1-(4-tert.-butylthiazol-2-yl)pyrrolidin-3-yl)-3-(2-fluorophenyl)propiolamide]
76 | Cc1csc(N2CCC(NC(=O)C#Cc3cccc(F)c3)C2)n1 (stereo not drawn) [Example 67, 3-(3-fluorophenyl)-N-(1-(4-methylthiazol-2-yl)pyrrolidin-3-yl)propiolamide]
50 | Cc1csc(N2CCC(NC(=O)C#Cc3ccccc3F)C2)n1 (stereo not drawn) [Example 70, 3-(2-fluorophenyl)-N-(1-(4-methylthiazol-2-yl)pyrrolidin-3-yl)propiolamide]
59 | Cc1csc(N2CCC(NC(=O)C#Cc3cccc(C(F)(F)F)c3)C2)n1 (stereo not drawn) [Example 71, N-(1-(4-methylthiazol-2-yl)pyrrolidin-3-yl)-3-(3-(trifluoromethyl)phenyl)-propiolamide]
87 | Cc1cccc(C#CC(=O)NC2CCN(c3nc(C)cs3)C2)c1 (stereo not drawn) [Example 72, N-(1-(4-methylthiazol-2-yl)pyrrolidin-3-yl)-3-m-tolylpropiolamide]

same assay, conditions: 10 μM test compound, 5 nM [^3H]-MPEP

inhibition at 10 µM [%] | Structure (SMILES)
66 | O=C(C#Cc1ccccc1)NC1CCN(c2nccs2)C1 (stereo not drawn) [Example 1, 3-Phenyl-N-(1-(thiazol-2-yl)pyrrolidin-3-yl)propiolamide]
57 | O=C(C#Cc1ccccc1)NC1CCCCC1Nc1nccs1 (stereo not drawn) [Example 6, 3-phenyl-N-(2-(thiazol-2-ylamino)cyclohexyl)propiolamide]
41 | CN(C(=O)C#Cc1ccccc1)C1CCCCC1N(C)c1nccs1 (stereo not drawn) [Example 12, N-Methyl-N-(2-(methyl(thiazol-2-yl)amino)cyclohexyl)-3-phenylpropiolamide]
19 | O=C(C#Cc1ccccc1)N1CCCC(Nc2nccs2)C1 (stereo not drawn) [Example 27, 3-(thiazol-2-yl-amino)-1-(3-phenylpropioloyl)piperidine]
